From US20030113810A1, “Novel assay” (priority 2000, published 2003)

Key:
[1] = molecular target: T1, rGPR41 (Rattus norvegicus, UniProt B2GV46); experiment: Yeast FUS1-lacZ/FUS1-HIS3 reporter assay, rGPR41 in S. cerevisiae MMY22 (Gpa1/Gαo), FDG substrate; assay type: cell-based; set-up: expressed in transfected cells; host or cells: S. cerevisiae MMY22 (A1, A5; Gpa1/Gαo integrated) or MMY11 + pRS314-Gpa1/Gαo (A4), transformed with p426GPD-rGPR41; details: for relative agonist activity at rGPR41 (in words): yeast MMY22, carboxylic acid series C1-C12, FIG. 8; for EC50: read-out: Agonism @ rGPR41 Approx. EC50
T1 sequence (B2GV46 1-319): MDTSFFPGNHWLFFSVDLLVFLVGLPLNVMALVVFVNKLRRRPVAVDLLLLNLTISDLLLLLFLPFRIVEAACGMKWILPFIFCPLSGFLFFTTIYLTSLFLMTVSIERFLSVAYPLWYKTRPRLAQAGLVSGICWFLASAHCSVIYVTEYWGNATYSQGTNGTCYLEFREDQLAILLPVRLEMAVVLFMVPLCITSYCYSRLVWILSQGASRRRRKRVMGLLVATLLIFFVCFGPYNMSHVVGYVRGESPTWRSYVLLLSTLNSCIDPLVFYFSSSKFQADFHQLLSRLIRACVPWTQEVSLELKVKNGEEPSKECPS
Method: A study was carried out of the function of rGPR41 following expression in S. cerevisiae MMY22, which is a derivative of S. cerevisiae MMY11 containing a copy of the gene encoding the Gpa1/Gαo transplant chimera described above (in which the 5 C-terminal amino acids of Gpa1 are replaced with the 5 C-terminal amino acids of Gαo) integrated into the genome. To do this, a cassette comprising the GPA1 promoter, nucleotide sequence encoding Gpa1/Gαo, and the terminator was sub-cloned from pRS314-Gpa1/Gαo into the yeast integrating plasmid pRS304 (Sikorski and Hieter, 1989). The resulting plasmid pRS304-Gpa1/Gαo was transformed into MMY11 and integrated into the trp1 locus creating MMY22.
The rGPR41 expression construct described above, p462GPD-rGPR41 was introduced into MMY22 by transformation as described above. Four separate transformants were tested for reporter gene activation in response to propionate. Assays for FUS1-lacZ and FUS1-HIS3 induction were performed as described, except the β-galactosidase (lacZ) substrate fluorescein di-β-D-galactopyranoside (FDG) was used in place of CPRG, and 3-aminotriazole concentration was 5 mM. Also, black-walled 96-well microtitre plates were used, and fluorescence resulting from degradation of FDG to fluorescein due to β-galactosidase was determined using a Spectrofluor microtitre plate reader (Tecan)(excitation wavelength: 485 nm; emmision wavelength: 535 nm).
A series of carboxylic acids and other compounds related to propionate were tested for the ability to activate rGPR41. Experiments were performed as described above, using yeast cells of strain MMY22 transformed with rGPR41 expression plasmid p462GPD-rGPR41, except that the agonist propionate was replaced with one of a series of other compounds, which are listed in table 2 below.
(§1) In vivo assays of reporter gene induction were carried out by suspending MMY11 cells transformed as described above to a density of 0.02 OD600/ml in 200 μl SC-glucose (2%) medium lacking tryptophan, uracil and histidine. This medium was supplemented with 10 mM 3-aminotriazole and the β-galactosidase (lacZ) substrate chlorophenolred-β-D-galactopyranoside (CPRG; Boehringer Mannheim) to a concentration of 0.1 mg/ml. Additionally the medium was supplemented with various concentrations of the agonist ligand, propionate (sodium propionate, pH 7.0). To visualise the yellow to red colour change reaction occurring on degradation of CPRG due to β-galactosidase, the medium was buffered to pH 7 with 0.1 M sodium phosphate. The assay was conducted in flat-bottomed sterile 96-well microtitre plates. Plates were incubated for 24 hours at 30° C. without agitation, and absorbance at 570 nm was determined using a Spectrofluor microtitre plate reader (Tecan).

[2] = molecular target: T1, rGPR41; experiment: Yeast reporter assay, rGPR41 in MMY22, CPRG substrate (3-hydroxybutyrate study); assay type: cell-based; set-up: expressed in transfected cells; host or cells: S. cerevisiae MMY22 (A1, A5; Gpa1/Gαo integrated) or MMY11 + pRS314-Gpa1/Gαo (A4), transformed with p426GPD-rGPR41; details: for agonism at rGPR41 (in words): FIG. 9
Method: A study was made of the agonism of rGPR41 by the naturally-occurring ketone body compound, 3-hydroxybutyrate. Experiments were performed as described above, using yeast cells of strain MMY22 transformed with rGPR41 expression plasmid p462GPD-rGPR41, except that the substrate CPRG was used. Also, the agonist propionate was replaced with 3-hydroxybutyrate (β-hydroxybutyrate), either as a racemic mix of both stereoisomers, or as purified enantiomers D-3-hydroxybutyrate, or L-3-hydroxybutyrate.
as §1

[3] = molecular target: T2, human GPR41 (Homo sapiens, UniProt O14843); details: membranes of HEK293T cells, human GPR41 + Go1α; FIG. 2-4
T2 sequence (O14843 1-346): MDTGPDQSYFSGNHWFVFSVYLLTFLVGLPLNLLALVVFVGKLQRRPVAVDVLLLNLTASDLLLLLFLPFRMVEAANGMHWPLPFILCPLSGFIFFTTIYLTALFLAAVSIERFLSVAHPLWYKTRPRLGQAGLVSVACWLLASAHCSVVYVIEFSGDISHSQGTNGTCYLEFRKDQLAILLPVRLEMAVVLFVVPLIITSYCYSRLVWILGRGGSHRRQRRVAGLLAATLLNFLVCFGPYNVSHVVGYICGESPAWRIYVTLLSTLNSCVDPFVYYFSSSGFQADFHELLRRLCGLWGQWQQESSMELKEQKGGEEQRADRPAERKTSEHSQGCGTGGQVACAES
Method: HEK293T cells (HEK293 cells stably expressing the SV40 large T-antigen) were maintained in DMEM containing 10% (v/v) foetal calf serum and 2 mM glutamine. Cells were seeded in 60 mm culture dishes and grown to 60-80% confluency (18-24 h) prior to transfection with pCDNA3 containing the relevant DNA species using Lipofectamine reagent. For transfection, 3 μg of DNA was mixed with 10 μl of Lipofectamine in 0.2 ml of Opti-MEM (Life Technologies Inc.) and was incubated at room temperature for 30 min prior to the addition of 1.6 ml of Opti-MEM. Cells were exposed to the Lipofectamine/DNA mixture for 5 h and 2 ml of 20% (v/v) newborn calf serum in DMEM was then added. Cells were harvested 48-72 h after transfection.
Plasma membrane-containing P2 particulate fractions were prepared from cell pastes frozen at −80° C. after harvest. All procedures were carried out at 4° C. Cell pellets were resuspended in 1 ml of 10 mM Tris-HCl and 0.1 mM EDTA, pH 7.5 (buffer A) and by homogenisation for 20 s with a polytron homogeniser followed by passage (5 times) through a 25-guage needle. Cell lysates were centrifuged at 1,000 g for 10 min in a microcentrifuge to pellet the nuclei and unbroken cells and P2 particulate fractions were recovered by microcentrifugation at 16,000 g for 30 min. P2 particulate fractions were resuspended in buffer A and stored at −80° C. until required. Protein concentrations were determined using the bicinchoninic acid (BCA) procedure (4) using BSA as a standard.
Assays were performed in 96-well format using a method modified from Wieland and Jakobs, 1994. Membranes (10 μg per point) were diluted to 0.083 mg/ml in assay buffer (20 mM HEPES, 100 mM NaCl, 10 mM MgCl2, pH7.4) supplemented with saponin (10 mg/l) and pre-incubated with 40 μM GDP. […] Non-specific binding was determined by the inclusion of 0.6 mM GTP. […] Plates were centrifuged at 1500 g for 5 min and bound [^35S]GTPγS was determined by scintillation counting on a Wallac 1450 microbeta Trilux scintillation counter.

[4] = yeast MMY22 with p462GPD-rGPR41, FDG fluorescence, compounds as salt solutions buffered to pH 7.0

Row | Compound | Agonism @ rGPR41 Approx. EC50 (M) [1, 4] | other results
1 | O=CC=O [Glyoxal] | – | Agonism @ rGPR41 Approx. EC50 (M) ([1]; pH 7): Toxic
2 | O=C(O)/C=C/C(=O)O [Fumarate] | Inactive | relative agonist activity at rGPR41 (in words) [1]: either inactive or had very weak activities
3 | CCCCCCCCCCC(=O)O [Undecanoic C11 acid] | inactive/toxic | relative agonist activity at rGPR41 (in words) [1]: inactive
4 | CCCCCCCCCCCCCCCC(=O)O [palmitate] | Inactive | –
5 | CCCCCCCCCCCCCCCCCC(=O)O [stearate] | Inactive | –
6 | O=C(O)C(O)C(O)C(=O)O (stereo not drawn) [Tartrate] | Inactive | –
7 | C/C=C(\C)C(=O)O [tiglic acid] | Inactive | –
8 | NCC(=O)O [Glycine] | Inactive | –
9 | CCCCCCC(=O)O [Heptanoic C7 acid] | – | EC50 [1, 4]: ~100 µM
10 | O=C(O)c1ccccc1 [benzoate] | – | Agonism @ rGPR41 Approx. EC50 (M) ([1]; pH 7): Toxic
11 | CCCCCC/C=C\CCCCCCCC(=O)O [Palmitoleic acid] | Toxic/inactive | –
12 | CC(O)CC(=O)O (racemic) [DL-b-Hydroxybutyrate] | – | EC50 [1, 4]: ~10000 µM; agonism at rGPR41 (in words) [2]: agonist at rGPR41 with a potency similar or slightly less than acetate; lowest concentrations causing detectable activation of rGPR41 (threshold) ([2]; FIG. 9, listed as 3-hydroxybutyrate): approximately 1 mM; stimulation of [35S]GTPγS binding [3]: elevate [^35S]GTPγS binding
13 | CC(C)(C)C(=O)O [pivalic acid] | – | EC50 [1, 4]: ~500 µM
14 | O=C(O)CC(=O)C(=O)O [Oxaloacetate] | Inactive | –
15 | CC(=O)C(=O)O [pyruvate] | Inactive | –
16 | CCC(O)C(=O)O (stereo not drawn) [alpha-hydroxybutyrate] | Inactive | –
17 | N[C@@H](CCC(=O)O)C(=O)O [Glutamate] | Inactive | –
18 | O=C(O)CC(=O)O [malonate] | Inactive | –
19 | CN[C@H](CC(=O)O)C(=O)O [NMDA] | Inactive | –
20 | CC(N)=O [acetamide] | very weak active | –
21 | O=CO [Formate] | – | Agonism @ rGPR41 Approx. EC50 (M) ([1]; pH 7): Weak active
22 | O=C1O[C@H]([C@@H](O)CO)C(O)=C1O [Ascorbate] | Inactive | –
23 | CCCCCC(=O)O [Caproic C6 acid] | – | EC50 [1, 4]: ~30 µM
24 | CCCCCCCCCC(=O)O [Decanoic C10 acid] | inactive/toxic | relative agonist activity at rGPR41 (in words) [1]: inactive
25 | CCCCC(=O)O [Pentanoate (n-valerate)] | – | relative agonist activity at rGPR41 (in words) [1]: similarly or slightly more active than propionate; EC50 [1, 4]: ~3 µM
26 | O=CC(=O)O [Glyoxylic acid] | – | EC50 [1, 4]: ~50000 µM

Row | Compound | Agonism @ rGPR41 Approx. EC50 (M) [1, 4] | other results
27 | O=C(O)/C=C\C(=O)O [maleate] | Inactive | –
28 | C[C@H](N)C(=O)O [Alanine] | Inactive | –
29 | CC(C)C(=O)O [Isobutyrate] | – | EC50 [1, 4]: ~30 µM
30 | C[C@H](O)CC(=O)O [L-b-Hydroxybutyrate] | – | EC50 [1, 4]: ~10000 µM
31 | O=C(O)CCCO [γ-hydroxybutyrate] | – | EC50 [1, 4]: ~10000 µM
32 | CC(C)=O [Acetone] | – | Agonism @ rGPR41 Approx. EC50 (M) ([1]; pH 7): Inactive
33 | C[C@@H](O)CC(=O)O [D-b-Hydroxybutyrate] | – | EC50 [1, 4]: ~10000 µM; agonism at rGPR41 (in words) [2]: similarly active to the racemic mix DL-3-hydroxybutyrate
34 | CCCCCCCC/C=C\CCCCCCCC(=O)O [oleate] | Inactive | –
35 | CCCCC/C=C\C/C=C\CCCCCCCC(=O)O [Linoleic acid] | Toxic/Inactive | –
36 | CCCCCCCCC(=O)O [Nonanoic C9 acid] | inactive/toxic | relative agonist activity at rGPR41 (in words) [1]: inactive
37 | O=C(O)CC(O)(CC(=O)O)C(=O)O [Citrate] | Inactive | relative agonist activity at rGPR41 (in words) [1]: either inactive or had very weak activities
38 | O=C(O)C(=O)O [Oxalate] | – | EC50 [1, 4]: ~3000 µM
39 | CCCC(=O)O [n-Butyrate] | – | EC50 [1, 4]: ~50 µM
40 | O=C(O)c1cccnc1 [nicotinic acid] | – | Agonism @ rGPR41 Approx. EC50 (M) ([1]; pH 7): Inactive
41 | O=C(O)C(F)(F)F [Trifluoroacetate] | weak active | –
42 | C=CCCC(=O)O [4-pentenoate] | – | EC50 [1, 4]: ~30 µM
43 | CCCCCCCC(=O)O [Caprylic C8 acid] | weak active | –
44 | NCCCC(=O)O [GABA] | Inactive | –
45 | O=C(O)CO [glycolate] | weak active | –
46 | CC(=O)CC(=O)O [Acetoacetate] | weak active | –
47 | CCCCCCCCCCCC(=O)O [Lauric C12 acid] | inactive/toxic | relative agonist activity at rGPR41 (in words) [1]: inactive
48 | O=C(O)CCC(=O)O [Succinate] | Inactive | relative agonist activity at rGPR41 (in words) [1]: either inactive or had very weak activities
49 | methyl-2-imidazoline | Toxic/inactive | –
50 | CS(=O)(=O)O [methylsulphonate] | Inactive | –
51 | CC(O)C(=O)O (stereo not drawn) [lactate] | Inactive | –
